Patent USRE41920E1, “Isobutylgaba and its derivatives for the treatment of pain” (Warner-Lambert Company LLC, priority 1997, dated 2010)

Legend:
[1] = system: thermal hyperalgesia after incision of the rat plantaris muscle; assay: Thermal hyperalgesia in the rat postoperative pain model (rat plantar test); assay type: in vivo; settings: for MED, block of development of thermal hyperalgesia: single dose s.c. before surgery (1 hour; morphine 0.5 hour)
Experimental: Gabapentin or S-(+)-3 isobutylgaba was administered 1 hour before surgery. Morphine was administered 0.5 hour before surgery. Thermal paw withdrawal latencies (PWL) were determined for both ipsilateral and contralateral paws using the rat plantar test. For clarity contralateral paw data for drug-treated animals is not shown. Baseline (BL) measurements were taken before surgery and PWL were reassessed 2, 24, 48, and 72 hours postsurgery. […] In the figure, —●— is vehicle contralateral, —◯— is vehicle ispsilateral, —Δ— is 1 mg/kg morphine, —▭— is 3, and —⋄— is 6 for morphine in 4a. In 4b, —Δ— is 3, —▭— is 10, and —⋄— is 30 for gabapentin. In 4c, —Δ— is 3 mg/kg, —▭— is 10, and —⋄— is 30 for S-(+)-isobutylgaba.
(§1) S-(+)-3-Isobutylgaba (S-(+)-IBG) was administered 1 hour after surgery. Thermal paw withdrawal latencies, determined using the rat plantar test, and paw withdrawal thresholds to von Frey hair filaments, were determined in separate groups of animals for both ipsilateral and contralateral paws. For clarity only the ipsilateral paw data is shown. Baseline (BL) measurements were taken before surgery and withdrawal thresholds were reassessed up to 6 hours postsurgery.
(§2) Male Sprague-Dawley rats (250-300 g), obtained from Bantin and Kingmen, (Hull, U. K.) were used in all experiments. Before surgery, animals were housed in groups of 6 under a 12-hour light/dark cycle (lights on at 07 hour 00 minute) with food and water ad libitum. Postoperatively, animals were housed in pairs on “Aqua-sorb” bedding consisting of air laid cellulose (Beta Medical and Scientific, Sale, U.K.) under the same conditions. All experiments were carried out by an observer blind to drug treatments.
(§3) Animals were anaesthetized with 2% isofluorane and 1.4 […] mixture which was maintained during surgery via a nose cone. The plantar surface of the right hind paw was prepared with 50% ethanol, and a 1-cm longitudinal incision was made through skin and fascia, starting 0.5 cm from the edge of the heel and extending towards the toes. The plantaris muscle was elevated using forceps and incised longitudinally. The wound was closed using two simple sutures of braided silk with a FST-02 needle. The wound site was covered with Terramycin spray and Auromycin powder. […] The sutures were removed after 48 hours.
Thermal hyperalgesia was assessed using the rat plantar test (Ugo Basile, Italy) following a modified method of Hargreaves, et al., 1988. Rats were habituated to the apparatus which consisted of three individual perspex boxes on an elevated glass table. A mobile radiant heat source was located under the table and focused onto the hind paw and paw withdrawal latencies (PWL) were recorded. There was an automatic cut off point of 22.5 seconds to prevent tissue damage. PWLs were taken 2 to 3 times for both hind paws of each animal, the mean of which represented baselines for right and left hind paws. The apparatus was calibrated to give a PWL of approximately 10 seconds. PWL(s) were reassessed following the same protocol as above 2, 24, 48, and 72 hours postoperatively.
(§4) Data obtained for thermal hyperalgesia was subjected to a one-way (analysis of variance) ANOVA followed by a Dunnett's t-test. Tactile allodynia results obtained with the von Frey hairs were subjected to an individual Mann Whitney t-test.

[2] = system: formalin-induced hind paw licking and biting; assay: Rat paw formalin test; assay type: in vivo; settings: for effect on the early phase of the formalin response / minimum effective dose (MED), block of licking/biting behavior during the late phase of the formalin response: s.c. 1 hour before formalin; for effect on the early phase of the formalin response: early phase (0-10 minutes), any of the doses tested; for minimum effective dose (MED), block of licking/biting behavior during the late phase of the formalin response: late phase (10-45 minutes)
Experimental: Test compounds were administered s.c. 1 hour before an intraplantar injection of 50 μL formalin. The time spent licking/biting the injected paw during the early and late phases was scored.
Male Sprague-Dawley rats (70-90 g) were habituated to perspex observation chambers (24 cm×24 cm×24 cm) for at least 15 minutes prior to testing. Formalin-induced hind paw licking and biting was initiated by a 50 μL subcutaneous injection of a 5% formalin solution (5% formaldehyde in isotonic saline) into the plantar surface of the left hind paw. Immediately following the formalin injection, licking/biting of the injected hind paw was scored in 5 minute bins for 60 minutes. The results are expressed as mean combined licking/biting time for the early phase (0-10 minutes) and late phase (10-45 minutes).

[3] = system: tactile allodynia after incision of the rat plantaris muscle; assay: Tactile allodynia in the rat postoperative pain model (von Frey hairs); assay type: in vivo; settings: for effect on tactile allodynia scores in the contralateral paw: up to the highest dose tested; for MED, prevention of development of tactile allodynia: s.c. 1 hour before surgery
Experimental: Gabapentin or S-(+)-3-isobutylgaba was administered 1 hour before surgery. Morphine was administered 0.5 hour before surgery. Paw withdrawal thresholds to von Frey hair filaments were determined for both ipsilateral and contralateral paws. For clarity, contralateral paw data for drug-treated animals is not shown. Baseline (BL) measurements were taken before surgery, and withdrawal thresholds were reassessed 3, 25, 49, and 73 hours postsurgery. […] In FIG. 5, —●— is vehicle contralateral, —◯— is vehicle ispsilateral. For morphine (5a), —Δ— is 1 mg/kg, —▭— is 3, and —⋄— is 16.
as §1, §2, §3
Tactile allodynia was measured using Semmes-Weinstein von Frey hairs (Stoelting, Ill., U.S.A.). Animals were placed into wire-mesh-bottom cages allowing access to the underside of their paws. The animals were habituated to this environment prior to the start of the experiment. Tactile allodynia was tested by touching the plantar surface of the animals hind paw with von Frey hairs in ascending order of force (0.7, 1.2, 1.5, 2, 3.6, 5.5, 8.5, 11.8, 15. 1, and 29 g) until a paw withdrawal response was elicited. Each von Frey hair was applied to the paw for 6 seconds, or until a response occurred. Once a withdrawal response was established, the paw was retested, starting with the next descending von Frey hair until no response occurred. The highest force of 29 g lifted the paw as well as eliciting a response, thus represented the cut-off point. Each animal had both hind paws tested in this manner. The lowest amount of force required to elicit a response was recorded as withdrawal threshold in grams. When compounds were administered before surgery, the same animals were used to study drug effects on tactile, allodynia, and thermal hyperalgasia, with each animal being tested for tactile allodynia 1 hour after thermal hyperalgesia. Separate groups of animals were used for examination of tactile allodynia and thermal hyperalgesia when S-(+)-3-isobutylgaba was administered after surgery.
as §4

[4] = system: carrageenin-induced thermal hyperalgesia; assay: Carrageenin-induced thermal hyperalgesia (Hargreaves model); assay type: in vivo, rat; settings: s.c. 2.5 hours after carrageenin; PWL at 3 and 4 hours
Experimental: Nociceptive thermal thresholds were measured in the rat using the Hargreaves apparatus. Baseline (BL) measurements were taken before animal s were administered with 100 μL of 2% carrageenin by intraplantar injection. Results are shown as mean (±SEM) of 8 animals per group.
(§5) On the test Day, 2 to 3 baseline measurements were taken before rats (male Sprague-Dawley 70-90 g) were administered with 100 μL of 2% carrageenin by intraplantar injection into the right hind paw. Animals were dosed with the test drug after development of peak hyperalgesia. Separate groups of animals were used for the mechanical and thermal hyperalgesia studies.
Baseline paw withdrawal latencies (PWL) were obtained for each rat using the Hargreaves model. Carrageenin was injected as described above. Animals were then tested for thermal hyperalgesia at 2 hours postcarrageenin administration. Gabapentin (10-100 mg/kg) or CI-1008 (1-30 mg/kg) was administered s.c. 2.5 hours after carrageenin, and PWL were reevaluated at 3 and 4 hours postcarrageenin administration. Carrageenin induced a significant reduction in paw withdrawal latency at 2, 3, and 4 hours following injection, indicating the induction of thermal hyperalgesia (FIG. 3). Gabapentin and CI-1008 dose-dependently antagonized the hyperalgesia with a MED of 30 and 3 mg/kg (FIG. 3).

[5] = system: carrageenin-induced mechanical hyperalgesia; assay: Carrageenin-induced mechanical hyperalgesia (rat paw pressure test); assay type: in vivo; settings: for MED, antagonism of carrageenin-induced mechanical hyperalgesia: s.c. 3.5 hours after carrageenin
Experimental: Nociceptive pressure thresholds were measured in the rat using the paw pressure test. Baseline (BL) measurements were taken before animals were administered with 100 μL of 2% carrageenin by intraplantar injection. Results are shown as mean (±SEM) of 8 animals per group.
as §5
Nociceptive pressure thresholds were measured in the rat paw pressure test using an analgesimeter (Ugo Basile). A cut-off point of 250 g was used to prevent any damage to the paw. The intraplantar injection of carrageenin produced a reduction in the nociceptive pressure threshold between 3 and 5 hours after injection, indicating induction of hyperalgesia. […] Gabapentin (3-300 mg/kg, s.c.) and CI-1008 (1-100 mg/kg, s.c.) dose-dependently antagonized the hyperalgesia, with respective MED of 10 and 3 mg/kg (FIG. 2).

[6] = 30 mg/kg s.c. 1 hour before surgery
[7] = 30 mg/kg, 1 hour before surgery

## NCC1(CC(=O)O)CCCCC1 [Gabapentin, 1-(aminomethyl)-cyclohexaneacetic acid]
[1]; [6]
  duration of prevention of the hyperalgesic response: 24 h
[1]; up to the highest dose tested
  effect on PWL of the contralateral paw in the thermal hyperalgesia test: did not affect PWL
[1]
  MED, block of development of thermal hyperalgesia: 30 mg/kg
[2]
  effect on the early phase of the formalin response: neither of the compounds affected the early phase
  minimum effective dose (MED), block of licking/biting behavior during the late phase of the formalin response: 30 mg/kg
[3]; 10 mg/kg, 1 hour before surgery
  duration of effect on tactile allodynia: 25 h
[3]; [7]
  duration of effect on tactile allodynia: 49 h
[3]
  effect on tactile allodynia scores in the contralateral paw: did not affect
  MED, prevention of development of tactile allodynia: 10 mg/kg
[4]
  MED, antagonism of carrageenin-induced thermal hyperalgesia: 30 mg/kg
[5]
  MED, antagonism of carrageenin-induced mechanical hyperalgesia: 10 mg/kg

## CN1CC[C@]23c4c5ccc(O)c4O[C@H]2[C@@H](O)C=C[C@H]3[C@H]1C5 [Morphine]
[1]; 6 mg, s.c., data not shown
  effect on PWL of the contralateral paw in the thermal hyperalgesia test: increased PWL of the contralateral paw
[1]; 1-6 mg/kg s.c. 0.5 hour before surgery
  duration of antagonism of development of thermal hyperalgesia: 24 h
[1]
  MED, block of development of thermal hyperalgesia: 1 mg/kg
[3]; highest dose of 6 mg/kg, 0.5 hour before surgery
  duration of prevention of development of tactile allodynia: 3 h
[5]; 3 mg/kg, s.c.
  effect on carrageenin-induced mechanical hyperalgesia: complete blockade of hyperalgesia

## CC(C)CC(CN)CC(=O)O (centres unmarked) [3-aminomethyl-5-methyl-hexanoic acid, 3-aminomethyl-5-methylhexanoic acid]
[2]; 100 mg/kg s.c. 1 hour before formalin
  blockade of the late phase of the formalin response: only a modest blockade

## CC(C)C[C@H](CN)CC(=O)O [CI-1008, (S)-3-(aminomethyl)-5-methylhexanoic acid]
[1]; [6]
  duration of effect on thermal hyperalgesia: up to 3 days
[1]; up to the highest dose tested
  effect on PWL of the contralateral paw in the thermal hyperalgesia test: did not affect PWL
[1]
  MED, block of development of thermal hyperalgesia: 3 mg/kg
[1]; summary statement
  block of induction and maintenance of hyperalgesia: completely blocked
[2]
  effect on the early phase of the formalin response: neither of the compounds affected the early phase
  minimum effective dose (MED), block of licking/biting behavior during the late phase of the formalin response: 10 mg/kg
[3]; [7]
  duration of blockade of the allodynia response: 3 days
[3]
  effect on tactile allodynia scores in the contralateral paw: did not affect
  MED, prevention of development of tactile allodynia: 10 mg/kg
[3]; summary statement
  block of induction and maintenance of allodynia: completely blocked
[4]
  MED, antagonism of carrageenin-induced thermal hyperalgesia: 3 mg/kg
[5]
  MED, antagonism of carrageenin-induced mechanical hyperalgesia: 3 mg/kg
